Reference: ChEMBL document CHEMBL5360618, “PepScaf: Harnessing Machine Learning with In Vitro Selection toward De Novo Macrocyclic Peptides against IL-17C/IL-17RE Interaction” (J Med Chem, 2023)
Positions of bridges follow the written chain, without caps; N, C: chain ends. Residues, ends and D or L forms follow the SMILES beside them.

Molecular target: T1, IL17-RE-IL-17C (Homo sapiens, UniProt Q8NFR9+Q9P0M4)
T1 sequence (Q9P0M4 whole entry): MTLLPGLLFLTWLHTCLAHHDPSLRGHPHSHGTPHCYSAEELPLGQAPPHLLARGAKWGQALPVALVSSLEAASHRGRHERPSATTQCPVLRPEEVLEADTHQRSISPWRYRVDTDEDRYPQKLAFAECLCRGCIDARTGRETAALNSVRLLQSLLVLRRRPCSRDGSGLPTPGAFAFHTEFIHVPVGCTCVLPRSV
T1 sequence (Q8NFR9 whole entry): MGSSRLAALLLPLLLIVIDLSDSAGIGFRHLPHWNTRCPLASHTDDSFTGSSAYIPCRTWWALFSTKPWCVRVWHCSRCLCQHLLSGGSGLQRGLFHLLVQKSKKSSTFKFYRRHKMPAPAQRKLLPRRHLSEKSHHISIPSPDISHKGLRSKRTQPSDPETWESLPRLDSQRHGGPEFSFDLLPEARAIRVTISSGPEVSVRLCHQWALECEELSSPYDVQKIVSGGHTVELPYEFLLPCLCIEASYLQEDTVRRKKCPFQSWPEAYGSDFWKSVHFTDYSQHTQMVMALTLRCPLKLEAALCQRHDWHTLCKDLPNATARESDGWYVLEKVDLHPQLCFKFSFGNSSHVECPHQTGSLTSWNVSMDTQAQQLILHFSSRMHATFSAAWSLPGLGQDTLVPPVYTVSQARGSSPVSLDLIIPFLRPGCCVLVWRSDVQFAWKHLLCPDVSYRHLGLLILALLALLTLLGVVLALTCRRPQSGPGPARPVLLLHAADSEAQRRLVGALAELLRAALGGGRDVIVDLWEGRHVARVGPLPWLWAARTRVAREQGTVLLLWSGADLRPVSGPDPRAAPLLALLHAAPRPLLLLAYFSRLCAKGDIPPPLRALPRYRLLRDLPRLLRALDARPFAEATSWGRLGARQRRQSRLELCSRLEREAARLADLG
Assay: Inhibition of IL-17C/IL-17RE interaction (unknown origin) incubated for 1.5 hrs by ELISA method
Format: protein-complex assay

Structure (SMILES) | IC50
CC[C@H](C)[C@@H]1NC(=O)[C@H](CCCNC(=N)N)NC(=O)[C@H](Cc2ccc(O)cc2)NC(=O)[C@H](Cc2ccc(O)cc2)NC(=O)[C@H](Cc2c[nH]cn2)NC(=O)[C@H](Cc2c[nH]cn2)NC(=O)[C@H](Cc2ccc(O)cc2)NC(=O)CSC[C@@H](C(=O)NCC(N)=O)NC(=O)CNC(=O)[C@H](CC(C)C)NC(=O)[C@H](CCC(=O)O)NC(=O)CNC(=O)[C@H](Cc2ccc(O)cc2)NC(=O)[C@@H]2CCCN2C1=O ({CH2CO}-YHHYYRIPYGELGCG-NH2; thioether N-14) | > 30000 nM
CC(C)C[C@@H]1NC(=O)[C@H](CCC(=O)O)NC(=O)CNC(=O)[C@H](Cc2ccc(O)cc2)NC(=O)[C@H](CC(C)C)NC(=O)[C@H]([C@@H](C)O)NC(=O)[C@H](CCCNC(=N)N)NC(=O)[C@H](Cc2ccc(O)cc2)NC(=O)[C@H](Cc2ccc(O)cc2)NC(=O)[C@H](Cc2c[nH]cn2)NC(=O)[C@H](Cc2c[nH]cn2)NC(=O)[C@H](Cc2ccc(O)cc2)NC(=O)CSC[C@@H](C(=O)NCC(N)=O)NC(=O)CNC1=O ({CH2CO}-YHHYYRTLYGELGCG-NH2; thioether N-14) | 288 nM
CC(C)C[C@@H]1NC(=O)[C@H](CCC(=O)O)NC(=O)CNC(=O)[C@H](Cc2ccc(O)cc2)NC(=O)[C@H](CC(C)C)NC(=O)[C@H](C(C)C)NC(=O)[C@H](CCCNC(=N)N)NC(=O)[C@H](Cc2ccc(O)cc2)NC(=O)[C@H](Cc2ccc(O)cc2)NC(=O)[C@H](Cc2c[nH]cn2)NC(=O)[C@H](Cc2cnc[nH]2)NC(=O)[C@H](Cc2ccc(O)cc2)NC(=O)CSC[C@@H](C(=O)NCC(N)=O)NC(=O)CNC1=O ({CH2CO}-YHHYYRVLYGELGCG-NH2; thioether N-14) | 414 nM
CC[C@H](C)[C@@H]1NC(=O)[C@H](Cc2c[nH]cn2)NC(=O)[C@H](Cc2ccc(O)cc2)NC(=O)CSC[C@@H](C(=O)NCC(N)=O)NC(=O)CNC(=O)[C@H](CC(C)C)NC(=O)[C@H](CC(N)=O)NC(=O)CNC(=O)[C@H](Cc2ccc(O)cc2)NC(=O)[C@H](CC(C)C)NC(=O)[C@H](CO)NC(=O)[C@H](C)NC(=O)[C@H](Cc2ccc(O)cc2)NC(=O)[C@H](Cc2ccc(O)cc2)NC1=O ({CH2CO}-YHIYYASLYGNLGCG-NH2; thioether N-14) | 4.4 nM
CC[C@H](C)[C@@H]1NC(=O)[C@H](Cc2c[nH]cn2)NC(=O)[C@H](Cc2ccc(O)cc2)NC(=O)CSC[C@@H](C(=O)NCC(N)=O)NC(=O)CNC(=O)[C@H](CC(C)C)NC(=O)[C@H](CCCNC(=N)N)NC(=O)CNC(=O)[C@H](Cc2ccc(O)cc2)NC(=O)[C@H](CC(C)C)NC(=O)[C@H](CO)NC(=O)[C@H](Cc2ccccc2)NC(=O)[C@H](Cc2ccc(O)cc2)NC(=O)[C@H](Cc2ccc(O)cc2)NC1=O ({CH2CO}-YHIYYFSLYGRLGCG-NH2; thioether N-14) | 3 nM
CC[C@H](C)[C@@H]1NC(=O)[C@H](Cc2c[nH]cn2)NC(=O)[C@H](Cc2ccc(O)cc2)NC(=O)CSC[C@@H](C(=O)NCC(N)=O)NC(=O)CNC(=O)[C@H](CC(C)C)NC(=O)[C@H](CC(N)=O)NC(=O)CNC(=O)[C@H](Cc2ccc(O)cc2)NC(=O)[C@H](CC(C)C)NC(=O)[C@H]([C@@H](C)CC)NC(=O)[C@H](CCCNC(=N)N)NC(=O)[C@H](Cc2ccc(O)cc2)NC(=O)[C@H](Cc2ccc(O)cc2)NC1=O ({CH2CO}-YHIYYRILYGNLGCG-NH2; thioether N-14) | 4.5 nM
CC[C@H](C)[C@@H]1NC(=O)[C@H](Cc2c[nH]cn2)NC(=O)[C@H](Cc2ccc(O)cc2)NC(=O)CSC[C@@H](C(=O)NCC(N)=O)NC(=O)CNC(=O)[C@H](CC(C)C)NC(=O)[C@H](CCCCN)NC(=O)[C@H](CCC(N)=O)NC(=O)[C@H](Cc2ccc(O)cc2)NC(=O)[C@H]([C@@H](C)CC)NC(=O)[C@H](CCC(N)=O)NC(=O)[C@H](CCCNC(=N)N)NC(=O)[C@H](Cc2ccc(O)cc2)NC(=O)[C@H](Cc2ccc(O)cc2)NC1=O ({CH2CO}-YHIYYRQIYQKLGCG-NH2; thioether N-14) | 328 nM

Now from value to molecule:

IC50 | Structure (SMILES)
2520 nM | CC[C@H](C)[C@@H]1NC(=O)[C@H](CO)NC(=O)[C@H](Cc2ccc(O)cc2)NC(=O)[C@H](Cc2ccc(O)cc2)NC(=O)[C@H](Cc2c[nH]cn2)NC(=O)[C@H](Cc2c[nH]cn2)NC(=O)[C@H](Cc2ccc(O)cc2)NC(=O)CSC[C@@H](C(=O)NCC(N)=O)NC(=O)CNC(=O)[C@H](CC(C)C)NC(=O)[C@H](CCC(=O)O)NC(=O)CNC(=O)[C@H](Cc2ccc(O)cc2)NC(=O)[C@H](CC(C)C)NC1=O ({CH2CO}-YHHYYSILYGELGCG-NH2; thioether N-14)
9.2 nM | CC[C@H](C)[C@@H]1NC(=O)[C@H](Cc2c[nH]cn2)NC(=O)[C@H](Cc2ccc(O)cc2)NC(=O)CSC[C@@H](C(=O)NCC(N)=O)NC(=O)CNC(=O)[C@H](CC(C)C)NC(=O)[C@H](C)NC(=O)CNC(=O)[C@H](Cc2ccc(O)cc2)NC(=O)[C@H](CC(C)C)NC(=O)[C@H](CO)NC(=O)[C@H](C)NC(=O)[C@H](Cc2ccc(O)cc2)NC(=O)[C@H](Cc2ccc(O)cc2)NC1=O ({CH2CO}-YHIYYASLYGALGCG-NH2; thioether N-14)
1.4 nM | CC[C@H](C)[C@@H]1NC(=O)[C@H](Cc2c[nH]cn2)NC(=O)[C@H](Cc2ccc(O)cc2)NC(=O)CSC[C@@H](C(=O)NCC(N)=O)NC(=O)CNC(=O)[C@H](CC(C)C)NC(=O)[C@H](CC(=O)O)NC(=O)CNC(=O)[C@H](Cc2ccc(O)cc2)NC(=O)[C@H](CC(C)C)NC(=O)[C@H](CO)NC(=O)[C@H](C)NC(=O)[C@H](Cc2ccc(O)cc2)NC(=O)[C@H](Cc2ccc(O)cc2)NC1=O ({CH2CO}-YHIYYASLYGDLGCG-NH2; thioether N-14)
4.2 nM | CC[C@H](C)[C@@H]1NC(=O)[C@H](Cc2c[nH]cn2)NC(=O)[C@H](Cc2ccc(O)cc2)NC(=O)CSC[C@@H](C(=O)NCC(N)=O)NC(=O)CNC(=O)[C@H](CC(C)C)NC(=O)[C@H](CCCCN)NC(=O)CNC(=O)[C@H](Cc2ccc(O)cc2)NC(=O)[C@H](CC(C)C)NC(=O)[C@H](CO)NC(=O)[C@H](C)NC(=O)[C@H](Cc2ccc(O)cc2)NC(=O)[C@H](Cc2ccc(O)cc2)NC1=O ({CH2CO}-YHIYYASLYGKLGCG-NH2; thioether N-14)
12 nM | CC[C@H](C)[C@@H]1NC(=O)[C@H](Cc2c[nH]cn2)NC(=O)[C@H](Cc2ccc(O)cc2)NC(=O)CSC[C@@H](C(=O)NCC(N)=O)NC(=O)CNC(=O)[C@H](CC(C)C)NC(=O)[C@H](CC(C)C)NC(=O)CNC(=O)[C@H](Cc2ccc(O)cc2)NC(=O)[C@H](CC(C)C)NC(=O)[C@H](CO)NC(=O)[C@H](C)NC(=O)[C@H](Cc2ccc(O)cc2)NC(=O)[C@H](Cc2ccc(O)cc2)NC1=O ({CH2CO}-YHIYYASLYGLLGCG-NH2; thioether N-14)
6.2 nM | CC[C@H](C)[C@@H]1NC(=O)[C@H](Cc2c[nH]cn2)NC(=O)[C@H](Cc2ccc(O)cc2)NC(=O)CSC[C@@H](C(=O)NCC(N)=O)NC(=O)CNC(=O)[C@H](CC(C)C)NC(=O)[C@H](Cc2c[nH]cn2)NC(=O)CNC(=O)[C@H](Cc2ccc(O)cc2)NC(=O)[C@H](CC(C)C)NC(=O)[C@H](CO)NC(=O)[C@H](Cc2ccccc2)NC(=O)[C@H](Cc2ccc(O)cc2)NC(=O)[C@H](Cc2ccc(O)cc2)NC1=O ({CH2CO}-YHIYYFSLYGHLGCG-NH2; thioether N-14)
6.3 nM | CC[C@H](C)[C@@H]1NC(=O)[C@H](Cc2c[nH]cn2)NC(=O)[C@H](Cc2ccc(O)cc2)NC(=O)CSC[C@@H](C(=O)NCC(N)=O)NC(=O)CNC(=O)[C@H](CC(C)C)NC(=O)[C@H](CO)NC(=O)CNC(=O)[C@H](Cc2ccc(O)cc2)NC(=O)[C@H](CC(C)C)NC(=O)[C@H]([C@@H](C)CC)NC(=O)[C@H](CCCNC(=N)N)NC(=O)[C@H](Cc2ccc(O)cc2)NC(=O)[C@H](Cc2ccc(O)cc2)NC1=O ({CH2CO}-YHIYYRILYGSLGCG-NH2; thioether N-14)
1.7 nM | CC[C@H](C)[C@@H]1NC(=O)[C@H](Cc2c[nH]cn2)NC(=O)[C@H](Cc2ccc(O)cc2)NC(=O)CSC[C@@H](C(=O)NCC(N)=O)NC(=O)CNC(=O)[C@H](CC(C)C)NC(=O)[C@H](CC(N)=O)NC(=O)CNC(=O)[C@H](Cc2ccc(O)cc2)NC(=O)[C@H](CC(C)C)NC(=O)[C@H](CO)NC(=O)[C@H](CCCNC(=N)N)NC(=O)[C@H](Cc2ccc(O)cc2)NC(=O)[C@H](Cc2ccc(O)cc2)NC1=O ({CH2CO}-YHIYYRSLYGNLGCG-NH2; thioether N-14)
7 nM | CC[C@H](C)[C@@H]1NC(=O)[C@H](Cc2c[nH]cn2)NC(=O)[C@H](Cc2ccc(O)cc2)NC(=O)CSC[C@@H](C(=O)NCC(N)=O)NC(=O)CNC(=O)[C@H](CC(C)C)NC(=O)[C@H](CO)NC(=O)CNC(=O)[C@H](Cc2ccc(O)cc2)NC(=O)[C@H](CC(C)C)NC(=O)[C@H](CO)NC(=O)[C@H](CO)NC(=O)[C@H](Cc2ccc(O)cc2)NC(=O)[C@H](Cc2ccc(O)cc2)NC1=O ({CH2CO}-YHIYYSSLYGSLGCG-NH2; thioether N-14)
9.6 nM | CC(C)C[C@@H]1NC(=O)[C@H](CC(N)=O)NC(=O)CNC(=O)[C@H](Cc2ccc(O)cc2)NC(=O)[C@H](CC(C)C)NC(=O)[C@H](CO)NC(=O)[C@H](C)NC(=O)[C@H](Cc2ccc(O)cc2)NC(=O)[C@H](Cc2ccc(O)cc2)NC(=O)[C@H](CC(C)C)NC(=O)[C@H](Cc2c[nH]cn2)NC(=O)[C@H](Cc2ccc(O)cc2)NC(=O)CSC[C@@H](C(=O)NCC(N)=O)NC(=O)CNC1=O ({CH2CO}-YHLYYASLYGNLGCG-NH2; thioether N-14)
